Assay results published in PMC13463089, “PA200 modulates immunoproteasome structure and activity” (Nature Communications, 2026).

Key:
[1] = target: T1, i20S-PA200 complex (PA200 / PSME4 bound to the immunoproteasome) (Homo sapiens, UniProt Q14997); experiment: cryo-EM structure ([…] and […] A); type: binding; settings: two IP6 molecules in the two positively charged grooves of PA200; density assigned by analogy to s20S-PA200 structures
T1 construct: recombinant purified human PA200, about 200 kDa, one or two copies per 20S; human i20S commercial (cryo-EM) or purified from HEK293-EBNA (activity); with Proteasome subunit beta type-8; Proteasome subunit beta type-9; Proteasome subunit beta type-10; Proteasome subunit alpha type-6; Proteasome subunit alpha type-2; Proteasome subunit alpha type-4; Proteasome subunit alpha type-7; Proteasome subunit alpha type-5; Proteasome subunit alpha type-1; Proteasome subunit alpha type-3; Proteasome subunit beta type-3; Proteasome subunit beta type-2; Proteasome subunit beta type-1; Proteasome subunit beta type-4

[2] = target: T2, s20S-PA200 complex (PA200 / PSME4 bound to the standard proteasome) (Homo sapiens, UniProt Q14997); experiment: fluorogenic peptide assay of […] activity; type: biochemical; settings: PA200 21.5 nM preincubated with 70 uM IP6, s20S 1.5 nM; pH 7.6, 37 C
T2 construct: recombinant purified human PA200 mixed with purified human s20S; with Proteasome subunit beta type-5; Proteasome subunit beta type-6; Proteasome subunit beta type-7; Proteasome subunit alpha type-6; Proteasome subunit alpha type-2; Proteasome subunit alpha type-4; Proteasome subunit alpha type-7; Proteasome subunit alpha type-5; Proteasome subunit alpha type-1; Proteasome subunit alpha type-3; Proteasome subunit beta type-3; Proteasome subunit beta type-2; Proteasome subunit beta type-1; Proteasome subunit beta type-4

[3] = target: T1, i20S-PA200 complex (PA200 / PSME4 bound to the immunoproteasome); experiment: fluorogenic peptide assay of […] activity; type: biochemical; settings: PA200 21.5 nM preincubated with 70 uM IP6, i20S 1.5 nM; substrates LLVY, ANW, PAL, LRR; pH 7.6, 37 C; activator

T1 sequence (Q14997 whole entry): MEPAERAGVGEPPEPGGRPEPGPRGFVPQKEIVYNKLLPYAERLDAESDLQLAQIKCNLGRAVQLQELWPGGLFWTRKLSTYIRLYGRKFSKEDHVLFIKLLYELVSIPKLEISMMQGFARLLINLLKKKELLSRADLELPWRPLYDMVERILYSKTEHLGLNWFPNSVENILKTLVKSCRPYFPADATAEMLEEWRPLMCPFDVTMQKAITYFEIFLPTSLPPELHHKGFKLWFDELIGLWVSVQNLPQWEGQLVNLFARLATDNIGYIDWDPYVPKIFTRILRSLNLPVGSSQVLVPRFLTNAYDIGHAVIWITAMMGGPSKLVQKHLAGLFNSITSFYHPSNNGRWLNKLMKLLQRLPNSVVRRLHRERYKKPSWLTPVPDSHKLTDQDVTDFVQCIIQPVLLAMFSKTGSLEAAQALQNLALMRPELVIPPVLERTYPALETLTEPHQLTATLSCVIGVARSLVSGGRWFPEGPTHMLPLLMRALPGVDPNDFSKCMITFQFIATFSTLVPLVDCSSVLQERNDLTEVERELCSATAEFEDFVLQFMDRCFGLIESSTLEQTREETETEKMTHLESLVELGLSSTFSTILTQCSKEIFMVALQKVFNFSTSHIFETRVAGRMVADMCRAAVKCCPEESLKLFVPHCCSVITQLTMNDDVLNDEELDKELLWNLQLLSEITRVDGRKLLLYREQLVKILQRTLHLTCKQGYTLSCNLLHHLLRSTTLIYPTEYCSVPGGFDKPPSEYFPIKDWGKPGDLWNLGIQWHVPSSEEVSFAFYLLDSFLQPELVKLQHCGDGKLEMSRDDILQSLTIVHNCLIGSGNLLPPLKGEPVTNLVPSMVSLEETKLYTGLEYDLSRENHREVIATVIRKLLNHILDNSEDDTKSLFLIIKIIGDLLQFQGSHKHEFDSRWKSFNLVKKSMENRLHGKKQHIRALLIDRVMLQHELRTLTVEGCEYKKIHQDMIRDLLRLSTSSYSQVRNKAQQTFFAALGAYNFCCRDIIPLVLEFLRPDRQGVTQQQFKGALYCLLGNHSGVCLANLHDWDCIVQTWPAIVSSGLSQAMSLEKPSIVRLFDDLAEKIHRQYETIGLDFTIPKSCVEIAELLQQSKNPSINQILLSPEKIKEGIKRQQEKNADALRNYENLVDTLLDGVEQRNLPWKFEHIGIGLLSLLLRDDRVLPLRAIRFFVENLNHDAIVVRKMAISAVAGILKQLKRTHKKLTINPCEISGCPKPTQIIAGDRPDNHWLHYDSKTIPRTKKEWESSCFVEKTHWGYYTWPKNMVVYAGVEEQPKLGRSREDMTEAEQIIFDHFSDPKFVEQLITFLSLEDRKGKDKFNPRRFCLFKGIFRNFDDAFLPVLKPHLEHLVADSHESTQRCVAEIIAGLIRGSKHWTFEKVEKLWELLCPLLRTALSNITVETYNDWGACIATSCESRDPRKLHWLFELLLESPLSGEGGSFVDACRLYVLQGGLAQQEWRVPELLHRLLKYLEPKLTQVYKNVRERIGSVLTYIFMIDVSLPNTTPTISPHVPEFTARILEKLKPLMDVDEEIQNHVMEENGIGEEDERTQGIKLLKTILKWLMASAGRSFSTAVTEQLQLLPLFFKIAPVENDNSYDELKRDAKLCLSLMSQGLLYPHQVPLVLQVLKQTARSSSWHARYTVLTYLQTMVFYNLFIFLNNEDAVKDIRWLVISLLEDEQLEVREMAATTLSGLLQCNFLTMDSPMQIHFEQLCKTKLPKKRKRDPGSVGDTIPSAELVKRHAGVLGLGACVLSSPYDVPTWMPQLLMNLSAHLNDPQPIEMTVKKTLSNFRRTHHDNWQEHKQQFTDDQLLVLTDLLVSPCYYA
T1 sequence (P28062 73-276 partner): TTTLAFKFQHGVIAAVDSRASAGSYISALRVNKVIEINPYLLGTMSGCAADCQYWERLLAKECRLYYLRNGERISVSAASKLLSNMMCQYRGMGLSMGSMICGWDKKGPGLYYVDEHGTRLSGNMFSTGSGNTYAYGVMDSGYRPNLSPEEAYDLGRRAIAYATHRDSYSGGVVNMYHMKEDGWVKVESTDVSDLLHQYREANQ
T1 sequence (P28065 21-219 partner): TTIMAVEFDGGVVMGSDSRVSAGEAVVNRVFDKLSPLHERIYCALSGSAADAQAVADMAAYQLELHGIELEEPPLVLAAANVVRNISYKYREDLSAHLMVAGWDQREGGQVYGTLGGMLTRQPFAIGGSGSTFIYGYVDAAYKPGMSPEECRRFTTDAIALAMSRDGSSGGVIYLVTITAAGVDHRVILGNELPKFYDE
T1 sequence (P40306 40-273 partner): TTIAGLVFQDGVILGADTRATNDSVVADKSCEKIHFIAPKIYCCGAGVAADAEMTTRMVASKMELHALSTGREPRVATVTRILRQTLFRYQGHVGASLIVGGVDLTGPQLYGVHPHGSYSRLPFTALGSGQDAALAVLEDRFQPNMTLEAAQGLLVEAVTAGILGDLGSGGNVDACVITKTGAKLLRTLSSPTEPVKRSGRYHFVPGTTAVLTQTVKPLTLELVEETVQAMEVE
T2 sequence (Q14997 whole entry): as the sequence (Q14997 whole entry) above
T2 sequence (P28074 60-263 partner): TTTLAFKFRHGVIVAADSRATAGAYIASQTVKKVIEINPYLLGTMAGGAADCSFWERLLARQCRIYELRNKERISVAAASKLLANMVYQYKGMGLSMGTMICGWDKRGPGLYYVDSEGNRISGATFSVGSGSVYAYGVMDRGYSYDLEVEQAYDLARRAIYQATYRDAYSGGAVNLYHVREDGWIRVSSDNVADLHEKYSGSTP
T2 sequence (P28072 35-239 partner): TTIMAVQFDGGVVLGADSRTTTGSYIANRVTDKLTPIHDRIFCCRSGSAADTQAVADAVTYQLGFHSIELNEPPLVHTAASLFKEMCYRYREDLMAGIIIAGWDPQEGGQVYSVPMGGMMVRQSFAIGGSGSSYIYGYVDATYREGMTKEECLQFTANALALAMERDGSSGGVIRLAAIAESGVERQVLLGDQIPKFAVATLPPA
T2 sequence (Q99436 44-277 partner): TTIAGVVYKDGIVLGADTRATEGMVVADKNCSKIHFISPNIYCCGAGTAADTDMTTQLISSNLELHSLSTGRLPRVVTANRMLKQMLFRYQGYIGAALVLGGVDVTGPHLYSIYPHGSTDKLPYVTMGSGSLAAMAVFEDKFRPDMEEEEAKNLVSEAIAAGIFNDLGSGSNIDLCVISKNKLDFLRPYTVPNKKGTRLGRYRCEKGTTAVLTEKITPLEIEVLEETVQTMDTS

O=P(O)(O)O[C@H]1[C@H](OP(=O)(O)O)[C@@H](OP(=O)(O)O)[C@H](OP(=O)(O)O)[C@@H](OP(=O)(O)O)[C@H]1OP(=O)(O)O [IP6]
cryo-EM structure (2.85 and 2.89 A) [1]: we assigned these densities to two molecules of IP6
relative activity [2]: Effect of phytic acid (IP6) on PA200-activated i20S (B, dark blue bars) and s20S
relative activity [3]: strong increase of the three activities that are specific for the i20S
